Data reported in patent US20090143361A1, “Pyrido[3,2-E]Pyrazines, Process For Preparing The Same, And Their Use As Inhibitors Of Phosphodiesterase 10” (ELBION GMBH, priority 2007, published 2009).

Target: T1, human recombinant PDE10A (Homo sapiens, UniProt Q9Y233)
T1 construct: made in house; host or cells: SF21 insect cells (baculovirus)
Assay: Inhibition of PDE10, human recombinant PDE10A ([3H]-cAMP SPA)
Assay type: biochemical
Settings: Table 7; read-out: Human PDE10 (IC50 nM)
Method: The gene was than inserted into a baculovirus vector, ligated with the baculovirus DNA. The enzyme-protein was expressed in SF21-cells. The enzyme was isolated from these cells by harvesting the cells by a centrifugation at 200 g to collect the cells. The cells were resuspended in 50 mM Tris-HCl/5 mM MgCl2 buffer (pH=7.4) and lysed by a sonication of the cells. The cytosolic PDE10A was obtained by a centrifugation at 48000 g for 1 h in the supernatant and stored at −70° C. PDE10 activity was determined in a one step procedure in microtiterplates. […] Nonspecific activity was tested without the enzyme. The reaction was initiated by addition of the substrate solution and was carried out at 37° C. for 30 minutes. Enzymatic activity was stopped by addition of 25 μl YSi-SPA-beads (Amersham-Pharmacia). One hour later the mixture was measured in a liquid scintillation counter for microtiterplates (Microbeta Trilux). To pipette the incubation mixture a robot Biomek (Fa. Beckman) is used. […] For determination of IC50 values the Hill-plot, 2-parameter-model, was used.

T1 sequence (Q9Y233 1-779 isoform Q9Y233-1): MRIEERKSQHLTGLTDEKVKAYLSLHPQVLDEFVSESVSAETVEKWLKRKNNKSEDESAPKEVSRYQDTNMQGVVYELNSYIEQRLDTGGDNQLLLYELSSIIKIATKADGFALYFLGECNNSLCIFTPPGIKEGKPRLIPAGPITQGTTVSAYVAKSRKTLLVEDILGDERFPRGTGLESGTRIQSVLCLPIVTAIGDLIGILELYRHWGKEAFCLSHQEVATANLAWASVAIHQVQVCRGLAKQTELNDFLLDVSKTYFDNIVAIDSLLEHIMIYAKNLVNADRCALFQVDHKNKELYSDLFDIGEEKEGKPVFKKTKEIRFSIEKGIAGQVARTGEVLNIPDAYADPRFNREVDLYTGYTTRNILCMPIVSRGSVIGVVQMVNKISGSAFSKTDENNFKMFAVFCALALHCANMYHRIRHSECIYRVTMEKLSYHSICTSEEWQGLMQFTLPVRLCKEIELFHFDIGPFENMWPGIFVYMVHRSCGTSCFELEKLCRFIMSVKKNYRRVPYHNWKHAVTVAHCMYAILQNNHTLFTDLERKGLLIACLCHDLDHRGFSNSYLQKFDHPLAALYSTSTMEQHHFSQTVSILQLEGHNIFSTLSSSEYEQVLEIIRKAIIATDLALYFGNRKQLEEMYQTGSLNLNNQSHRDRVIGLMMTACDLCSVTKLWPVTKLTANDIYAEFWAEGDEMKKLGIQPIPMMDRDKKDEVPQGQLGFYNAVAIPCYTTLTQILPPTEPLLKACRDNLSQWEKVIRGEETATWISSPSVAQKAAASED

| IC50 [nM] | SMILES |
| --- | --- |
| 10 to 100 | COc1ccc(Cl)c(-c2nc(C)c3c(C)nc4ccc(OC)nc4n23)c1 [Example 19, 9-(2-Chloro-5-methoxyphenyl)-2-methoxy-6,7-dimethylimidazo[1,5-a]pyrido[3,2-e]pyrazine] |
| < 10 | COc1ccc2nc(C)c3c(C)nc(-c4ccc(C(F)(F)F)cc4Cl)n3c2n1 [Example 20, 9-[2-Chloro-4-(trifluoromethyl)phenyl]-2-methoxy-6,7-dimethylimidazo[1,5-a]pyrido[3,2-e]pyrazine] |
| 10 to 100 | COc1ccc2nc(C)c3c(C)nc(-c4cc(C)ccc4F)n3c2n1 [Example 21, 9-(2-Fluoro-5-methylphenyl)-2-methoxy-6,7-dimethylimidazo[1,5-a]pyrido[3,2-e]pyrazine] |
| < 10 | COc1ccc2nc(C)c3c(C)nc(-c4cc(C(F)(F)F)ccc4Cl)n3c2n1 [Example 23, 9-[2-Chloro-5-(trifluoromethyl)phenyl]-2-methoxy-6,7-dimethylimidazo[1,5-a]pyrido[3,2-e]pyrazine] |
| 10 to 100 | COc1ccc2nc(C)c3c(C)nc(-c4cc(OC(F)(F)F)ccc4Cl)n3c2n1 [Example 24, 9-[2-Chloro-5-(trifluoromethoxy)phenyl]-2-methoxy-6,7-dimethylimidazo[1,5-]pyrido[3,2-e]pyrazine] |

Same assay, conditions: Table 9; read-out: hPDE10 IC50

| SMILES | IC50 [nM] |
| --- | --- |
| Cc1nc(-c2cccc(S(N)(=O)=O)c2)n2c1c(C)nc1ccc(OCC3CC3)nc12 [Example 148, 3-[2-(cyclopropylmethoxy)-6,7-dimethylimidazo[1,5-a]pyrido[3,2-e]pyrazin-9-yl]benzenesulfonamide] | > 100 |
| Cc1ccc(C(N)=O)cc1-c1nc(C)c2c(C)nc3ccc(OCC4CC4)nc3n12 [Example 149, 3-[2-(cyclopropylmethoxy)-6,7-dimethylimidazo[1,5-a]pyrido[3,2-e]pyrazin-9-yl]-4-methylbenzamide] | < 10 |
| Cc1cc(C(N)=O)ccc1-c1nc(C)c2c(C)nc3ccc(OCC4CC4)nc3n12 [Example 150, 4-[2-(cyclopropylmethoxy)-6,7-dimethylimidazo[1,5-a]pyrido[3,2-e]pyrazin-9-yl]-3-methylbenzamide] | < 10 |
| Cc1nc(-c2cc(C(N)=O)ccc2F)n2c1c(C)nc1ccc(OCC3CC3)nc12 [Example 151, 3-[2-(cyclopropylmethoxy)-6,7-dimethylimidazo[1,5-a]pyrido[3,2-e]pyrazin-9-yl]-4-fluorobenzamide] | < 10 |
| Cc1ccccc1-c1nc(C)c2c(C)nc3ccc(=O)[nH]c3n12 [Example 152, 6,7-Dimethyl-9-o-tolylimidazo[1,5-a]pyrido[3,2-e]pyrazin-2(1H)-one] | 10 to 100 |
| Cc1ccccc1-c1nc(C)c2c(C)nc3ccc(OCC(F)F)nc3n12 [Example 153, 2-(2,2-difluoroethoxy)-6,7-dimethyl-9-(2-methylphenyl)imidazo[1,5-a]pyrido[3,2-e]pyrazine] | < 10 |
| Cc1ccccc1-c1nc(C)c2c(C)nc3ccc(OCCF)nc3n12 [Example 154, 2-(2-fluoroethoxy)-6,7-dimethyl-9-(2-methylphenyl)imidazo[1,5-a]pyrido[3,2-e]pyrazine] | < 10 |
| Cc1ccccc1-c1nc(C)c2c(C)nc3ccc(OCC(F)(F)F)nc3n12 [Example 155] | 10 to 100 |
| Cc1ccccc1-c1nc(C)c2c(C)nc3ccc(OCc4ccc(F)cc4)nc3n12 [Example 157, 2-[(4-fluorobenzyl)oxy]-6,7-dimethyl-9-(2-methylphenyl)imidazo[1,5-a]pyrido[3,2-e]pyrazine] | 10 to 100 |
| Cc1ccccc1-c1nc(C)c2c(C)nc3ccc(OCc4ccncc4)nc3n12 [Example 158, 6,7-dimethyl-9-(2-methylphenyl)-2-(pyridin-4-ylmethoxy)imidazo[1,5-a]pyrido[3,2-e]pyrazine] | < 10 |
| Cc1ccncc1-c1nc(C)c2c(C)nc3ccc(=O)[nH]c3n12 [Example 159, 6,7-Dimethyl-9-(4-methylpyridin-3-yl)imidazo[1,5-a]pyrido[3,2-e]pyrazin-2(H)-one] | > 100 |
| COc1ccc2nc(C)c3c(C)nc(-c4ccncc4OC)n3c2n1 [Example 161, 2-Methoxy-9-(3-methoxypyridin-4-yl)-6,7-dimethylimidazo[1,5-a]pyrido[3,2-e]pyrazine] | 10 to 100 |
| COc1ccc2nc(C#N)c3c(C)nc(-c4ccccc4C)n3c2n1 [Example 165, 2-methoxy-7-methyl-9-(2-methylphenyl)imidazo[1,5-a]pyrido[3,2-e]pyrazine-6-carbonitrile] | 10 to 100 |
| COc1ccc2nc(C#N)c3c(C)nc(-c4cc(C(N)=O)ccc4F)n3c2n1 [Example 166, 3-(6-cyano-2-methoxy-7-methylimidazo[1,5-a]pyrido[3,2-e]pyrazin-9-yl)-4-fluorobenzamide] | < 10 |
| COc1ccc2nc(C#N)c3c(C)nc(-c4cccc(C(N)=O)c4)n3c2n1 [Example 167, 3-(6-cyano-2-methoxy-7-methylimidazo[1,5-a]pyrido[3,2-e]pyrazin-9-yl)benzamide] | 10 to 100 |
| COc1ccc2nc(C#N)c3c(C)nc(-c4ccc(F)c(C(N)=O)c4)n3c2n1 [Example 168, 5-(6-cyano-2-methoxy-7-methylimidazo[1,5-a]pyrido[3,2-e]pyrazin-9-yl)-2-fluorobenzamide] | < 10 |
| COc1ccc2nc(C#N)c3c(C)nc(-c4cnccc4C)n3c2n1 [Example 169, 2-methoxy-7-methyl-9-(4-methylpyridin-3-yl)imidazo[1,5-a]pyrido[3,2-e]pyrazine-6-carbonitrile] | > 100 |
| COc1ccc2nc(C#N)c3c(C)nc(-c4ccncc4)n3c2n1 [Example 170, 2-methoxy-7-methyl-9-pyridin-4-ylimidazo[1,5-a]pyrido[3,2-e]pyrazine-6-carbonitrile] | > 100 |

Other lines, results leading:

| IC50 [nM] | SMILES |
| --- | --- |
| 10 to 100 | COc1ccc2nc(C#N)c3c(C)nc(-c4cccnc4)n3c2n1 [Example 171, 2-methoxy-7-methyl-9-pyridin-3-ylimidazo[1,5-a]pyrido[3,2-e]pyrazine-6-carbonitrile] |
| > 100 | COc1ccc2nc(C#N)c3c(C)nc(-c4ccc(F)nc4C)n3c2n1 [Example 172, 9-(6-fluoro-2-methylpyridin-3-yl)-2-methoxy-7-methylimidazo[1,5-a]pyrido[3,2-e]pyrazine-6-carbonitrile] |
| 10 to 100 | COc1ccc2nc(C)c3c(C)nc(-c4ccnc(F)c4)n3c2n1 [Example 174, 9-(2-fluoropyridin-4-yl)-2-methoxy-6,7-dimethylimidazo[1,5-a]pyrido[3,2-e]pyrazine] |
| < 10 | COc1ccc2nc(C)c3c(C)nc(-c4cccnc4F)n3c2n1 [Example 175, 9-(2-fluoropyridin-3-yl)-2-methoxy-6,7-dimethylimidazo[1,5-a]pyrido[3,2-e]pyrazine] |
| < 10 | COc1ccc2nc(C)c3c(C)nc(-c4ccc5[nH]ccc5c4)n3c2n1 [Example 177, 9-(1H-indol-5-yl)-2-methoxy-6,7-dimethylimidazo[1,5-a]pyrido[3,2-e]pyrazine] |
| > 100 | COc1ccc2nc(C)c3c(C)nc(-c4ccc(N(C)C)nc4)n3c2n1 [Example 178, 5-(2-methoxy-6,7-dimethylimidazo[1,5-a]pyrido[3,2-e]pyrazin-9-yl)-N,N-dimethylpyridin-2-amine] |
| 10 to 100 | COc1ccc2nc(C)c3c(C)nc(-c4cnn(C)c4)n3c2n1 [Example 180, 2-methoxy-6,7-dimethyl-9-(1-methyl-1H-pyrazol-4-yl)imidazo[1,5-a]pyrido[3,2-e]pyrazine] |
| 10 to 100 | COc1ccc2nc(C)c3c(C)nc(-c4cc[nH]c4)n3c2n1 [Example 181, 2-methoxy-6,7-dimethyl-9-(1H-pyrrol-3-yl)imidazo[1,5-a]pyrido[3,2-e]pyrazine] |
| > 100 | COc1ccc2nc(C)c3c(C)nc(-c4cnn(CC(C)C)c4)n3c2n1 [Example 182, 2-methoxy-6,7-dimethyl-9-[1-(2-methylpropyl)-1H-pyrazol-4-yl]imidazo[1,5-yl}imidazo[1,5-a]pyrido[3,2-e]pyrazine] |
| < 10 | COc1cncc(-c2nc(C)c3c(C)nc4ccc(OC)nc4n23)c1 [Example 184, 2-methoxy-9-(5-methoxypyridin-3-yl)-6,7-dimethylimidazo[1,5-a]pyrido[3,2-e]pyrazine] |
| > 100 | COc1ccc2nc(C)c3c(C)nc(-c4ccc(N5CCOCC5)nc4)n3c2n1 [Example 187, 2-methoxy-6,7-dimethyl-9-(6-morpholin-4-ylpyridin-3-yl)imidazo[1,5-a]pyrido[3,2-e]pyrazine] |
| > 100 | COc1ccc2nc(C)c3c(C)nc(-c4cccc(N5CCOCC5)c4)n3c2n1 [Example 188, 2-methoxy-6,7-dimethyl-9-(3-morpholin-4-ylphenyl)imidazo[1,5-a]pyrido[3,2-e]pyrazine] |
| > 100 | CCCn1cc(-c2nc(C)c3c(C)nc4ccc(OC)nc4n23)cn1 [Example 189, 2-methoxy-6,7-dimethyl-9-(1-propyl-1H-pyrazol-4-yl)imidazo[1,5-a]pyrido[3,2-e]pyrazine] |
| > 100 | COc1ccc2nc(C)c3c(C)nc(-c4cnn(CCN5CCOCC5)c4)n3c2n1 [Example 190, 2-methoxy-6,7-dimethyl-9-[1-(2-morpholin-4-ylethyl)-1H-pyrazol-4-yl]imidazo[1,5-a]pyrido[3,2-e]pyrazine] |

Target: PDE10 from pig striatum (Sus scrofa, UniProt A0A287B941)
Assay: Inhibition of PDE10 from pig striatum ([3H]-cAMP SPA)
Assay type: biochemical
Settings: Table 7; read-out: PDE10 pig IC50

| IC50 [nM] | SMILES |
| --- | --- |
| < 10 | COc1ccc(Cl)c(-c2nc(C)c3c(C)nc4ccc(OC)nc4n23)c1 [Example 19, 9-(2-Chloro-5-methoxyphenyl)-2-methoxy-6,7-dimethylimidazo[1,5-a]pyrido[3,2-e]pyrazine] |
| < 10 | COc1ccc2nc(C)c3c(C)nc(-c4ccc(C(F)(F)F)cc4Cl)n3c2n1 [Example 20, 9-[2-Chloro-4-(trifluoromethyl)phenyl]-2-methoxy-6,7-dimethylimidazo[1,5-a]pyrido[3,2-e]pyrazine] |
| < 10 | COc1ccc2nc(C)c3c(C)nc(-c4cc(C)ccc4F)n3c2n1 [Example 21, 9-(2-Fluoro-5-methylphenyl)-2-methoxy-6,7-dimethylimidazo[1,5-a]pyrido[3,2-e]pyrazine] |
| < 10 | COc1ccc2nc(C)c3c(C)nc(-c4cc(C(F)(F)F)ccc4Cl)n3c2n1 [Example 23, 9-[2-Chloro-5-(trifluoromethyl)phenyl]-2-methoxy-6,7-dimethylimidazo[1,5-a]pyrido[3,2-e]pyrazine] |
| 10 to 100 | COc1ccc2nc(C)c3c(C)nc(-c4cc(OC(F)(F)F)ccc4Cl)n3c2n1 [Example 24, 9-[2-Chloro-5-(trifluoromethoxy)phenyl]-2-methoxy-6,7-dimethylimidazo[1,5-]pyrido[3,2-e]pyrazine] |
